The results in this text go back to ChEMBL document CHEMBL3351739, “Design, synthesis and biological evaluation of 6-(nitroimidazole-1H-alkyloxyl)-4-anilinoquinazolines as efficient EGFR inhibitors exerting cytotoxic effects both under normoxia and hypoxia” (Eur J Med Chem, 2015).

The target of data set [1] is Epidermal growth factor receptor (Homo sapiens, UniProt P00533). Briefly: Inhibition of wild type EGFR (unknown origin) by Z'-Lyte kinase assay.
Data set [2] has as its system HT-29. Kind of data set: Cytotoxicity against human HT-29 cells after 72 hrs under normoxia conditions by SRB assay. The format is functional, cell-based. The settings on record: HT-29, 72 h. In general terms: In SRB staining, fixed cells bind dye roughly in proportion to their protein.
Data set [3] has as its system HT-29. Briefly: Cytotoxicity against human HT-29 cells after 72 hrs under hypoxia conditions by SRB assay. The format is functional, cell-based. Particulars: HT-29, 72 h.
The nature of data set [4]: Metabolic stability in mouse liver microsomes assessed as compound remaining at 5 uM after 30 mins under normoxia conditions in presence of NADPH by HPLC method. Particulars: read-out: Stability. The class given is ADME. (In general: Liver microsomes are a subcellular fraction often used to study metabolism.)
Data set [5] in a line: Metabolic stability in mouse liver microsomes assessed as compound remaining at 5 uM after 30 mins under hypoxia conditions in presence of NADPH by HPLC method. The format is ADME. Particulars: read-out: Stability.
The nature of data set [6]: Reductive drug activation assessed as reactive radical formation at 4.1 umol in pH 7.4 PBS in presence of zinc dust and ammonium chloride by HPLC-Q-ToF-MS method. The settings on record: buffer.

Structures are written as SMILES.

Epidermal growth factor receptor, sequence (P00533 whole entry): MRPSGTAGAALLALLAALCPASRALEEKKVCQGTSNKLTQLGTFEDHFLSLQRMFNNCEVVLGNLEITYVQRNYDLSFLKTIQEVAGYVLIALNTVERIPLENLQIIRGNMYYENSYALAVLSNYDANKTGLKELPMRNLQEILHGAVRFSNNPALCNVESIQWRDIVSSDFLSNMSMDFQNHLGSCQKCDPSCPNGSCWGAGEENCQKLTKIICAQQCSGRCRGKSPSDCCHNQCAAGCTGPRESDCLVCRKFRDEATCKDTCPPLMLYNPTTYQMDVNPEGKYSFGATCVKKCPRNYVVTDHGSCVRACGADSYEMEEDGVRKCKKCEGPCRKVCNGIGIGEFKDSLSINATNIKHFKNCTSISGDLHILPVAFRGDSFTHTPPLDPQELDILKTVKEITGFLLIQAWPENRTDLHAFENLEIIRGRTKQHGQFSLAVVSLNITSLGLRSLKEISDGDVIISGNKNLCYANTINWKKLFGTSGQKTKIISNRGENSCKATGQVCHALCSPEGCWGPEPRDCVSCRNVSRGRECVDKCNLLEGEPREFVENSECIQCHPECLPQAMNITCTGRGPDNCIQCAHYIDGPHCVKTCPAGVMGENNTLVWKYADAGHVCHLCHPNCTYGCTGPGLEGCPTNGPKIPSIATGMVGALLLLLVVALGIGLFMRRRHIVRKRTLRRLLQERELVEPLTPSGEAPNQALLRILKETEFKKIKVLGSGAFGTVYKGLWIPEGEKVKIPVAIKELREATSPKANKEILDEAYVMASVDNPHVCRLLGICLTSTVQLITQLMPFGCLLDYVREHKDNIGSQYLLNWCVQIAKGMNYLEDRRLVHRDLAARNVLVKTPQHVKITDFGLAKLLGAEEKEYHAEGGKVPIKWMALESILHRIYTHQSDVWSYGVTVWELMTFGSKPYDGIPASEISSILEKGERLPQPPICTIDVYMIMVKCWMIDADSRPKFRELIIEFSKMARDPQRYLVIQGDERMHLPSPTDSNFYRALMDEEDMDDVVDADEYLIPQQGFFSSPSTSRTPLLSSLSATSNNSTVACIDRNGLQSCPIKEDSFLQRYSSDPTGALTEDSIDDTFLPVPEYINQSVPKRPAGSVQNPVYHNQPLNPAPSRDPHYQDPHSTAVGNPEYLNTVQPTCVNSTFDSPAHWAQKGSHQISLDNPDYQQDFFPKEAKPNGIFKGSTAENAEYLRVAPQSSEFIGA

For the compound `COc1cc2ncnc(Nc3ccc(OCc4cccc(F)c4)c(Cl)c3)c2cc1OCCCn1ccnc1[N+](=O)[O-]`, the IC50 turned out to be 0.0383 µM in data set [1], 15.5 µM in the data set with HT-29 [2] and 20 µM in the data set with HT-29 [3].
As to `COc1cc2ncnc(Nc3ccc(F)c(Cl)c3)c2cc1OCCCN1CCOCC1` [GEFITINIB], the remaining at 0.5 h, 5 µM in data set [4] and in data set [5] was above 90% throughout.
With `COc1cc2ncnc(Nc3ccc(F)c(Cl)c3)c2cc1OCCCCCCn1ccnc1[N+](=O)[O-]`, the results for the IC50 with HT-29 [2] and in the data set on HT-29 [3] were 12.9 µM and 9.81 µM, respectively.
As to `C#Cc1cccc(Nc2ncnc3cc(OC)c(OCCCCCCn4ccnc4[N+](=O)[O-])cc23)c1`, the IC50 was found to be 0.0005 µM in data set [1], 2.93 µM in the data set with HT-29 [2] and 3.46 µM in the data set on HT-29 [3].
Consider `COc1cc2ncnc(Nc3ccc(F)c(Cl)c3)c2cc1OCCn1ccnc1[N+](=O)[O-]`, for which the IC50 is 0.00305 µM in data set [1], above 50 µM in the data set with HT-29 [2] and 10 µM with HT-29 [3].
On the same counts, the results for `COc1cc2ncnc(Nc3ccc(F)c(Cl)c3)c2cc1OCCCn1c([N+](=O)[O-])cnc1C` are 0.00343 µM, 23.2 µM and 11.5 µM.
Regarding `COc1cc2ncnc(Nc3ccc(OCc4cccc(F)c4)c(Cl)c3)c2cc1OCCCCCCn1ccnc1[N+](=O)[O-]`, the IC50 in data set [1] was 0.0151 µM; with HT-29 [2], above 50 µM; in the data set on HT-29 [3], 24.3 µM.
On to `COc1cc2ncnc(Nc3ccc(F)c(Cl)c3)c2cc1OCCCCCn1ccnc1[N+](=O)[O-]`, for which the IC50 turned out to be 0.00051 µM in data set [1], 17.6 µM with HT-29 [2] and 5.59 µM in the data set on HT-29 [3].
Take `COc1cc2ncnc(Nc3ccc(F)c(Cl)c3)c2cc1OCCCCn1ccnc1[N+](=O)[O-]`: the IC50 in data set [1] came to 0.00047 µM; with HT-29 [2], 2.21 µM; in the data set on HT-29 [3] it was 1.62 µM. The Drug metabolism result in data set [6] was “metabolite_detected”. Moreover, the results for the remaining at 0.5 h, 5 µM in data set [4] and in data set [5] were 70% and below 10%, respectively.
Turning to `COc1cc2ncnc(Nc3ccc(OCc4cccc(F)c4)c(Cl)c3)c2cc1OCCCCn1ccnc1[N+](=O)[O-]`, the IC50 in data set [1] worked out at 0.0285 µM; in the data set on HT-29 [2] it was 1.87 µM; in the data set on HT-29 [3] it was 2.07 µM.
Turning to `COc1cc2ncnc(Nc3cccc(Br)c3)c2cc1OCCCn1c([N+](=O)[O-])cnc1C`, the values for the IC50 (in data set [1]; in the data set with HT-29 [2]; with HT-29 [3]) were 0.00118 µM, 15.7 µM and 5.41 µM, respectively.
As to `COc1cc2ncnc(Nc3ccc(OCc4cccc(F)c4)c(Cl)c3)c2cc1OCCCCCn1ccnc1[N+](=O)[O-]`, the IC50 in data set [1] is 0.0512 µM; in the data set with HT-29 [2], 3.09 µM; with HT-29 [3], 1.36 µM.
On the same counts, the results for `COc1cc2ncnc(Nc3ccc(F)c(Cl)c3)c2cc1OCCn1c([N+](=O)[O-])cnc1C` are 0.0049 µM, above 50 µM and above 50 µM.
For `COc1cc2ncnc(Nc3ccc(F)c(Cl)c3)c2cc1OCCCn1ccnc1[N+](=O)[O-]`, the IC50 in data set [1] was found to be 0.00089 µM; in the data set with HT-29 [2], 8.39 µM; in the data set on HT-29 [3], 7.17 µM.
On the same counts, the results for `C#Cc1cccc(Nc2ncnc3cc(OC)c(OCCCCn4ccnc4[N+](=O)[O-])cc23)c1` are 0.00056 µM, 10.1 µM and 6.9 µM.
With `C#Cc1cccc(Nc2ncnc3cc(OC)c(OCCCn4ccnc4[N+](=O)[O-])cc23)c1`, the IC50 in data set [1] turned out to be 0.00108 µM; with HT-29 [2], 5.55 µM; with HT-29 [3], 5.53 µM.
Consider `COc1cc2ncnc(Nc3cccc(Br)c3)c2cc1OCCCn1ccnc1[N+](=O)[O-]`, for which the 50% inhibitory concentration (IC50) in data set [1] turned out to be 0.00066 µM; in the data set on HT-29 [2] it was 4.48 µM; in the data set on HT-29 [3] it was 4.01 µM.
For `COc1cc2ncnc(Nc3ccc(F)c(Cl)c3)c2cc1OCCCCn1c([N+](=O)[O-])cnc1C`, the IC50 in data set [1] came out at 0.00053 µM; in the data set with HT-29 [2], 8.21 µM; in the data set on HT-29 [3], 9.98 µM.
In the case of `C#Cc1cccc(Nc2ncnc3cc(OC)c(OCCCCCn4ccnc4[N+](=O)[O-])cc23)c1`, the IC50 in data set [1] is 0.00049 µM; in the data set on HT-29 [2], 3.55 µM; in the data set on HT-29 [3], 3.05 µM.
As to `Nc1n[n+]([O-])c2ccccc2[n+]1[O-]` [TIRAPAZAMINE], the IC50 in the data set with HT-29 [2] is above 50 µM; with HT-29 [3], 9.45 µM.

What is called IC50 is the midpoint of a concentration-inhibition curve. Read a low IC50 as inhibition by little substance.
